The values below come from ChEMBL document CHEMBL2073830, “A novel inhibitor of the mammalian peptide transporter PEPT1” (Biochemistry, 2001).

Molecules are shown by their SMILES. Non-standard residues stand in square brackets, D forms with d. Residues, ends and D or L forms follow the SMILES beside them. *: point of attachment. Cbz = O=C(OCc1ccccc1)*

The target of this assay is T1, Solute carrier family 15 member 1 (Homo sapiens, UniProt P46059).
T1 sequence (P46059 whole entry): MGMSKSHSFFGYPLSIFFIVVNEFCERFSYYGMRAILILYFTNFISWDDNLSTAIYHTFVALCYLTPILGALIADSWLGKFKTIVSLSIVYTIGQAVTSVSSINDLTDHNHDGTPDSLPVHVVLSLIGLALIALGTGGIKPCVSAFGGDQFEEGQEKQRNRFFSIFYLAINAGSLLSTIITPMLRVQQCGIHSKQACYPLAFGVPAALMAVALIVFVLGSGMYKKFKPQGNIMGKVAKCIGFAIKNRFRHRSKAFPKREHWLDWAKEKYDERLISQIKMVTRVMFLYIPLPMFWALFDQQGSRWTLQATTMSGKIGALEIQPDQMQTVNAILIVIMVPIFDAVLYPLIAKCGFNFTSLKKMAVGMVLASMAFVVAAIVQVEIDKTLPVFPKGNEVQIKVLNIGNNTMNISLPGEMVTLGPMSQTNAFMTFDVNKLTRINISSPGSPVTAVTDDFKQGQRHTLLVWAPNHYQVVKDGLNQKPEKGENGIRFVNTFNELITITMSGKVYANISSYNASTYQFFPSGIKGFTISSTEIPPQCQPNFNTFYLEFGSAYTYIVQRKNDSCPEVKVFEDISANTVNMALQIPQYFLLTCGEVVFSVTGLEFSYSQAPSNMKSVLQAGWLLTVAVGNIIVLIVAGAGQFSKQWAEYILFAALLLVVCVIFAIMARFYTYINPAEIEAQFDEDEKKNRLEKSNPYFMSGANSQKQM
Kind of assay: TP_TRANSPORTER: inhibition of Gly-Sar uptake in Caco-2 cells. The class given is functional, cell-based.
One may read the Ki as a dissociation constant, usually derived from enzyme kinetics or from competition with a known ligand. Read a low Ki as a stronger hold on the target. As to `N[C@@H](CCCCNC(=O)OCc1ccc([N+](=O)[O-])cc1)C(=O)N1CCC[C@H]1C(=O)O`, the inhibitory constant (Ki) was 19 µM.

`NCCCC[C@H](NC(=O)OCc1ccccc1)C(=O)N1CCC[C@H]1C(=O)O` (Cbz-Lys-Pro-OH) gave a Ki of 33 µM.

`NCCCC[C@H](N)C(=O)N1CCC[C@@H]1C(=O)O` (H-Lys-[dP]-OH) showed an inhibitory constant (Ki) of 350 µM.
